In PMC6125496 (Antimicrobial Agents and Chemotherapy, 2018):
In brackets after ≈: the same amount, converted by molar mass. Where two headings read alike, the source gives them in different places. Non-standard residues stand in square brackets, D forms with d. Residues, ends and D or L forms follow the SMILES beside them. Dab(3S-OH) = NC[C@H](O)[C@H](N)C(=O)O; Phe(2-F) = N[C@@H](Cc1ccccc1F)C(=O)O; ΔZArg = N=C(N)NCC/C=C(\N)C(=O)O; dOrn = NCCC[C@@H](N)C(=O)O; Dab = NCC[C@H](N)C(=O)O

How the values were obtained:
[1] = test system: Escherichia coli, colistin-resistant (25)
Excerpt: (§1) Reference strains are from the German Collection of Microorganisms and Cell Cultures (DSMZ), the American Type Culture Collection (ATCC), the National Collection of Type Cultures (NCTC), and the Medical and Molecular Microbiology, Faculty of Science and Medicine, University of Fribourg, Switzerland.

[2] = test system: Enterobacter cloacae BEU; settings: Ambler class D carbapenemase; OXA-48 + CTX-M15 + SHV-12 + TEM-1 + OXA-1 + DHA-1
Excerpt: as §1

[3] = test system: Enterobacter cloacae YAM; settings: Ambler class D carbapenemase; OXA-48 + CTX-M15 + TEM-1 + OXA-1 + DHA-1
Excerpt: as §1

[4] = test system: Escherichia coli COL; settings: Ambler class A carbapenemase; KPC-2 + TEM-1 + CTX-M9
Excerpt: as §1

[5] = test system: Escherichia coli DOV; settings: Ambler class D carbapenemase; OXA-48 + TEM-1 + CTX-M15 + OXA-1
Excerpt: as §1

[6] = test system: Klebsiella pneumoniae A33504; settings: Ambler class A carbapenemase; KPC-2+ SHV-11 + TEM-1 + CTX-M-2 + OXA-9
Excerpt: as §1

N=C(N)NCC/C=C(\NC(=O)[C@H](CCCCN)NC(=O)[C@H](Cc1ccccc1F)NC(=O)[C@@H]1CCCN1C(=O)[C@@H](CCCN)NC(=O)CNC(=O)[C@H](CCN)NC(=O)[C@@H](NC(=O)[C@@H](N)CCCCN)[C@@H](O)CN)C(=O)O [NOSO-502] (H-K[Dab(3S-OH)][Dab]G[dOrn]P[Phe(2-F)]K[ΔZArg]-OH)
MIC range ([1]; Unknown mechanism (2 isolates)): 1 to 2 µg/mL
MIC range ([1]; mcr-1 (21 isolates)): 1 to 4 µg/mL
MIC range ([1]; mcr-2 (1 isolate)): 1 µg/mL (≈ 0.927 µM)
MIC range ([1]; mcr-3 (1 isolate)): 1 µg/mL (≈ 0.927 µM)

polymyxin B [PMB]
MIC [2]: 16 µg/mL
MIC [3]: 1 µg/mL
MIC [4]: 0.5 µg/mL
MIC [5]: 0.5 µg/mL
MIC [6]: 0.5 µg/mL
